Assays:
Type in all cases: cell-based
KCNQ2/3 [1] = molecular target: T1, KCNQ2/3 (Rattus norvegicus, UniProt O88943+O88944); assay: whole-cell patch clamp, HEK cells, current at −[…] mV; settings: opener; at −30 mV; activation V0.5 shifted by −24 mV; pH 7.2; room temperature
T1 construct: rat KCNQ2 and KCNQ3 cDNAs in pcDNA3.1 co-transfected 1:1 in HEK cells; heterotetramer

KCNQ2/3 [2] = molecular target: T1, KCNQ2/3; assay: whole-cell patch clamp, HEK cells, current at +[…] mV; settings: HEK293
dKCNQ [3] = molecular target: T2, dKCNQ (Drosophila melanogaster, UniProt Q5PXF9); assay: as above; settings: HEK293
T2 construct: gene KCNQ; full-length cDNA RE26469 in pIRES2-EGFP, expressed in HEK cells; homotetramer
T2 sequence (Q5PXF9 1-808): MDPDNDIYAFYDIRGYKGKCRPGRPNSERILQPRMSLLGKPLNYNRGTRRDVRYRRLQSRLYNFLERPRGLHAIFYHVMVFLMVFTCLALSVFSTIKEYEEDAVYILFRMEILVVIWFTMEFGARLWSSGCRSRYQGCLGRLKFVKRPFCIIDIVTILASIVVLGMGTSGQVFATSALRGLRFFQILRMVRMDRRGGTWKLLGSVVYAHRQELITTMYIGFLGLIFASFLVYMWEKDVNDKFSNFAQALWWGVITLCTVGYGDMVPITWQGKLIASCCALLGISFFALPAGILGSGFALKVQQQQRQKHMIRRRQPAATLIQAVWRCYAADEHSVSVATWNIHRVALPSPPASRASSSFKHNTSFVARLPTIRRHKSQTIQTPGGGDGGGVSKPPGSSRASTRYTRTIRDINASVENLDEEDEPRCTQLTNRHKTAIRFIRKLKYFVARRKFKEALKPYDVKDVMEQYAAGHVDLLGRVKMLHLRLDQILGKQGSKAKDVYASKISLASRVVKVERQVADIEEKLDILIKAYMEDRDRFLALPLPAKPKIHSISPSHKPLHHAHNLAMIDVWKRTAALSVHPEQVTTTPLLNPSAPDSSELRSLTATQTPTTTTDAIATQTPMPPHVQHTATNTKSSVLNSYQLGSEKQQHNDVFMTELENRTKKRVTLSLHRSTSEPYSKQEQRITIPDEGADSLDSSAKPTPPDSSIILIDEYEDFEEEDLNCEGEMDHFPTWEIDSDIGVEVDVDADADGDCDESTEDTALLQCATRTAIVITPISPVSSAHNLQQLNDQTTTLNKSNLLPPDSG

KCNQ1/KCNE1 = molecular target: T3, KCNQ1/KCNE1 (Homo sapiens, UniProt P51787); assay: as above; settings: HEK293
T3 construct: human KCNQ1 co-expressed with KCNE1 (cDNA 1:2) in HEK cells, pIRES1-CD8; with Potassium voltage-gated channel subfamily E member 1

dKCNQ [4] = molecular target: T2, dKCNQ; assay: as above

T1 sequence (O88943 whole entry): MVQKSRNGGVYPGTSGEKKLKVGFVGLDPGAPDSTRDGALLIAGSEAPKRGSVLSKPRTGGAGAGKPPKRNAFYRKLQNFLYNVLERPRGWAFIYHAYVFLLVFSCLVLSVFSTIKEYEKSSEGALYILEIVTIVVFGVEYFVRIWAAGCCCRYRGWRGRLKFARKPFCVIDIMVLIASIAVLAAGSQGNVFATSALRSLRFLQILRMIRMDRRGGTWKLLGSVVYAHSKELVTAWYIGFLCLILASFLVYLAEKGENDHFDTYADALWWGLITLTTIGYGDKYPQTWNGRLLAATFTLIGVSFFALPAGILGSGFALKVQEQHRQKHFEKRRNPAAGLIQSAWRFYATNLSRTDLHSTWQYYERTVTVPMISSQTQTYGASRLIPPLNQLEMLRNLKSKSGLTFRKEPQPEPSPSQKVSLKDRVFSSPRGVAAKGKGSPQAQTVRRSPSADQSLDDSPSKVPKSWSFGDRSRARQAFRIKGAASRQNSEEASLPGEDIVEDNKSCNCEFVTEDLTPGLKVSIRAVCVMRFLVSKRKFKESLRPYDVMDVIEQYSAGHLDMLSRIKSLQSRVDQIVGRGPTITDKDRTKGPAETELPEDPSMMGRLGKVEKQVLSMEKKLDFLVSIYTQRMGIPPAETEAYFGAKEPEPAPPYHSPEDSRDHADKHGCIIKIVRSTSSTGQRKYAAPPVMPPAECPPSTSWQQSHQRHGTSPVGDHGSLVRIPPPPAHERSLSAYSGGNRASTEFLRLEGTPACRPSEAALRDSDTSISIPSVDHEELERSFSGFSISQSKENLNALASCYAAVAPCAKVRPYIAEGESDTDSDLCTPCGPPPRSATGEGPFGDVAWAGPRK
T1 sequence (O88944 whole entry): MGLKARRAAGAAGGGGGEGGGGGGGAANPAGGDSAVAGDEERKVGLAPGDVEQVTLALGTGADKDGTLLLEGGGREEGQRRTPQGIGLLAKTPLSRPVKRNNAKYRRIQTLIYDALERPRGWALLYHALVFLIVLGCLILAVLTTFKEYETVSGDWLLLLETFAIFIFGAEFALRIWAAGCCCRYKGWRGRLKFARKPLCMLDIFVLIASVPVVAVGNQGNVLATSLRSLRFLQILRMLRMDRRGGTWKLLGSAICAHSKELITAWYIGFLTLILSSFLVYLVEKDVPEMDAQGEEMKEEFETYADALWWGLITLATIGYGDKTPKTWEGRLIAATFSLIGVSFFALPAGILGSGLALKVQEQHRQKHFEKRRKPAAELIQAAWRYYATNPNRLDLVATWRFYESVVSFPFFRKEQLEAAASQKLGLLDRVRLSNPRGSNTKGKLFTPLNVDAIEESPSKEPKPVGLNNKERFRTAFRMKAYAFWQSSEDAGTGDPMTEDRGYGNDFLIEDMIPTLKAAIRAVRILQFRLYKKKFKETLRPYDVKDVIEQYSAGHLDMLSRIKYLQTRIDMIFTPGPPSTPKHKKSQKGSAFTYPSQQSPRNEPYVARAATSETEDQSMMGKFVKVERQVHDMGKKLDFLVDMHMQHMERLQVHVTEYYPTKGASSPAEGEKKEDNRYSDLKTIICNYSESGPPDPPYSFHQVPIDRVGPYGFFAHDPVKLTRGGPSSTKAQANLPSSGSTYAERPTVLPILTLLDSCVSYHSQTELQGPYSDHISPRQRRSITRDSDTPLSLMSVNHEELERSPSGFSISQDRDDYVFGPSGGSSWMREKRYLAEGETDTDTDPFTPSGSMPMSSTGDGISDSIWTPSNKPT
T3 sequence (P51787 whole entry): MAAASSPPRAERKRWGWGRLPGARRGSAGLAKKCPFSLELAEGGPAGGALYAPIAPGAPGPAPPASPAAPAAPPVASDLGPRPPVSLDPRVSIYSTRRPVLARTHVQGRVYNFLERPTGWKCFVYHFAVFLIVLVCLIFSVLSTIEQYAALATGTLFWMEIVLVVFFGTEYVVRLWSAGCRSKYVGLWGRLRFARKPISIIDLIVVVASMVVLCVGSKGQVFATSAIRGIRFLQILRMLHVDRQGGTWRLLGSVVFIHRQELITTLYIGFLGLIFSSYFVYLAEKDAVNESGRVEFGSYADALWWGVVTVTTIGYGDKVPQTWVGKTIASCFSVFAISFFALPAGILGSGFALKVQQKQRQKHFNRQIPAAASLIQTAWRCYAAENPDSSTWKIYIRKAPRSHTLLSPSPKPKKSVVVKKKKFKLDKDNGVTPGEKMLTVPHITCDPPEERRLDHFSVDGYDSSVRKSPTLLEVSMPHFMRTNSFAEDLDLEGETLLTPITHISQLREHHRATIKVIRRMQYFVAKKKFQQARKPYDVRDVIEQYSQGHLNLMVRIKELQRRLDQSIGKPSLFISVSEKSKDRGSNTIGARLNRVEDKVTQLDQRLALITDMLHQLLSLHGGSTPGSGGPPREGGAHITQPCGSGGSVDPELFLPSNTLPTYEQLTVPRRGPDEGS

## CCOC(=O)Nc1ccc(NCc2ccc(F)cc2)cc1N [retigabine]
KCNQ2/3 [1]
  % current enhancement at 10 μM: ~ 35%

## O=C1N(c2ccccc2)c2ccccc2C1(Cc1ccncc1)Cc1ccncc1 [linopirdine]
KCNQ2/3 [2]
  inhibition at 10 µM: ~40%
dKCNQ [3]
  inhibition at 10 µM: ~30%

## CCS(=O)(=O)N(C)C1c2cc(C#N)ccc2OC(C)(C)C1O (stereo not shown) [chromanol 293B]
KCNQ1/KCNE1
  inhibition at 10 µM: ~56%
dKCNQ [4]
  IC50: 13 ± 3.6 µM

## O=C1c2ccccc2C(Cc2ccncc2)(Cc2ccncc2)c2ccccc21 [XE991, 10,10-bis(4-Pyridinylmethyl)-9(10H)-anthracenone]
KCNQ2/3 [2]
  inhibition at 10 µM: ~50%
dKCNQ [4]
  IC50: 5.5 ± 1.1 µM

Source: PMC3168433, “Drosophila KCNQ Channel Displays Evolutionarily Conserved Electrophysiology and Pharmacology with Mammalian KCNQ Channels” (PLoS ONE, 2011)
